Read-outs that look alike come from different tables or passages of the source.
Columns and labels:
[1] = tested on: cells in media with inhibiting osmotic stress; conditions: cited from earlier work
[2] = tested on: Brevibacterium flavum DSM5399; conditions: 72 hours at 30° C., 300 rpm
Method: A culture medium containing 100 g/l saccharose, 12 g/l (NH4)2SO4, 100 ml/l soya flour hydrolysate, 0.5 g/l K2HPO4, 0.5 g/l KH2PO4, 0.25 g/l MgSO4.7H2O, 5.0 g/l NaCl and 1 ml of a solution of trace salts was adjusted to pH 7.0 and autoclaved. The solution of trace salts consisted of 1.0 g FeSO4.7H2O, 1.0 g MnSO4.H2O, 0.1 g ZnSO4.7H2O, 0.02 g CuSO4 and 0.002 g NiCl2.6H2O, which was made up to 100 ml with demineralised water and a few drops of a 1N HCl solution.
1 ml each of a 0.2 mg/l biotin and thiamine stock solution, which had been sterilised by filtration, were added to the culture medium. 10.0 g/l CaCO3 was sterilised together with the shaking flasks. In the culture medium, the proline concentration resulting from the introduction of soya flour hydrolysate was 0.34 g/l. The specified concentration of proline, obtained from a proline stock solution, was added to the medium after having been sterilised by filtration.
An agar plate with brain-heart agar as nutrient medium, which had been incubated for 72 hours with DSM5399, was suspended in 10 ml of sterile physiological saline. 10 ml portions of cultivation medium were placed in 100 ml Erlenmeyer shaking flasks and inoculated with 100 μl of the withdrawn cell suspension. The cultivation took place over 72 hours at 30° C. and 300 rpm. Subsequent to this, as specified in Example 1, the OD was determined at a wavelength of 660 nm and the threonine concentration was measured.

[3] = tested on: Brevibacterium flavum DSM5399; conditions: Proline 0.1 g/l; 72 hours at 30° C., 300 rpm
Method: The solution of trace salts consisted of 1.0 g FeSO4.7H2O, 1.0 g MnSO4.H2O, 0.1 g ZnSO4.7H2O, 0.02 g CuSO4 and 0.002 g NiCl2.6H2O, which was made up to 100 ml with demineralised water and a few drops of a 1N HCl solution.
1 ml each of a 0.2 mg/l biotin and thiamine stock solution, which had been sterilised by filtration, were added to the culture medium. 10.0 g/l CaCO3 was sterilised together with the shaking flasks.
10 ml portions of cultivation medium were placed in 100 ml Erlenmeyer shaking flasks and inoculated with 100 μl of the withdrawn cell suspension. The cultivation took place over 72 hours at 30° C. and 300 rpm.

[4] = tested on: Corynebacterium glutamicum DSM5715; conditions: Proline 0.5 g/l; 72 hours at 33° C., 150 rpm; NaCl 5 g/l
Method: A culture medium containing 2.5 g/l NaCl, 10 g/l peptone and 10 g/l yeast extract was adjusted to pH 7.4 with sodium hydroxide and, after heat sterilisation, 40 ml of 50% glucose solution per liter was added thereto. 47 ml portions of the medium were inoculated with Corynebacterium glutamicum DSM5715 with a needle on an agar plate with brain-heart agar as nutrient medium incubated for 48 hours and were shaken at 150 rpm for 20 hours at 33° C. in an RC-1-TK incubator from the firm Infors AG (Bottmingen, Switzerland). The cells were then washed with sterile physiological saline. The cells were separated by centrifugation for 20 minutes at 4000 rpm in a Beckmann centrifuge J 6B.
For the main cultivation in shaking flasks, 40 g (NH4)2SO4, 0.5 g KH2PO4, 0.5 g K2HPO4, 0.25 g MgSO4.7H2O and 0.3 g L-leucine were weighed in a 1 l beaker and 750 ml distilled water was added thereto. […]
The cultivation took place over 72 hours at 33° C. and 150 rpm in an RC-1-TK incubator from the firm Infors AG (Bottmingen, Switzerland). Subsequent to this, the optical density (OD) (photometer LP2W from the firm Dr. Lange, Berlin, Germany) and the concentration of L-amino acid formed in the culture suspension were determined. Amino acids were analysed by ion-exchange chromatography and post-column reaction with ninhydrin detection, using an amino acid analyser from the firm Eppendorf BioTronik (Hamburg, Germany).

[5] = Proline 0.34 g/l (resulting from soya flour hydrolysate, none added)

Row | SMILES | growth rate of the cells [1] | production of L-lysine [1] | OD 660 nm [2, 5] | Threonine [2, 5] | OD 660 nm ([2]; Proline 0.66 g/l) | Threonine ([2]; Proline 0.66 g/l) | L-isoleucine [3] | OD 660 nm [3] | Lysine [4] | OD 535 nm [4]
1 | C[N+](C)(C)CC(=O)[O-] [glycine betaine] | stimulates the growth rate | increase in the production of L-lysine |  |  |  |  |  |  |  | 
2 | O=C(O)[C@@H]1CCCN1 [Proline, L-proline] |  |  | 51.2 | 0.63 g/L | 52.6 | 1.29 g/L | 0.36 g/L | 52.0 | 29.4 g/L | 30.5

— patent US20010049128A1, “PROCESS FOR THE FERMENTATIVE PRODUCTION OF L-AMINO ACIDS” (priority 1998, published 2001)
